Like-named read-outs stand apart in the source and are kept apart here. Where only a bound is given, the exact number is not on record here.

For assay [1], the target named is T1, STING WT: His-TVMV-S-hSTING(155-341)-H232R (Homo sapiens, UniProt Q86WV6, H232R).
T1 construct: STING WT: His-TVMV-S-hSTING(155-341)-H232R
The assay is described as follows: STING HTRF Binding Assay (time resolved FRET competition), STING WT. To be noted: 20 nM His-tagged STING cytoplasmic domain WT, 200 nM fluorescein-labeled cGAMP analog probe, one hour; read-out: HTRF Binding Assays EC50 (μM) STING WT. The protocol:
(§1) A time resolved FRET-based competition binding assay was used to assess test article binding to STING WT and STING AQ. His-tagged STING cytoplasmic domain (WT or AQ) at a concentration of 20 nM was incubated with 2.5 nM Tb-labeled anti-His antibody, test compound, and fluorescein-labeled cGAMP analog probe (BioLog cat. no. C195) at a concentration of 200 nM (STING WT) or 40 nM (STING AQ) in PBS containing 0.005% Tween-20 and 0.1% BSA for one hour. Fluorescence at 495 nm and 520 nm was measured using an EnVision microplate reader to quantify FRET between Tb-labeled anti-His antibody and fluorescein-labeled probe. Background was defined as the signal obtained in the absence of STING protein, and background subtracted FRET ratios were normalized to the maximum signal obtained in the absence of test compound. These values were converted to a percent inhibition. Percent inhibition was determined for test compounds at 11 concentrations. The IC50, defined as the concentration of competing test compound needed to reduce specific binding of the probe by 50%, was calculated using the 4 parameter logistic equation to fit the data
For orientation: In TR-FRET formats the signal depends on donor and acceptor labels being close together.

The target in assay [2] is T2, STING AQ: His-TVMV-S-hSTING(155-341)-G230A-R293Q (Homo sapiens, UniProt Q86WV6, G230A/H232R/R293Q).
T2 construct: STING AQ: His-TVMV-S-hSTING(155-341)-G230A-R293Q
T2 sequence (Q86WV6 with tags, fused parts or gaps G230A/H232R/R293Q): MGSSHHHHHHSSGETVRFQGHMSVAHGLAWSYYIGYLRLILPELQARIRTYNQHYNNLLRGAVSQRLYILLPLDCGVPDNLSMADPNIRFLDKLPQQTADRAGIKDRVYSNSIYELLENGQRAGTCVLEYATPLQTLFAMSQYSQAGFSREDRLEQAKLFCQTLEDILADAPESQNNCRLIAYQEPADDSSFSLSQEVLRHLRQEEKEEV
Description: STING HTRF Binding Assay (time resolved FRET competition), STING AQ. The conditions noted are these: 20 nM His-tagged STING cytoplasmic domain AQ, 40 nM fluorescein-labeled cGAMP analog probe, one hour; read-out: HTRF Binding Assays EC50 (μM) STING AQ. The protocol: as §1

The next assay has as its system NFkB. Description: STING THP1 Reporter Assay, NF-κB pathway (SEAP). The conditions noted are these: THP1-Dual cells, 10% human plasma, SEAP readout (OD620), 100% activation = 100 μM cGAMP, read-out: THP1 Reporter Assays EC50 (μM) NFkB. The format is cell-based. From the text: (§2) THP1-Dual™ cells were derived from the human THP-1 monocyte cell line by stable integration of two inducible reporter constructs. To this end, THP1-Dual™ cells allow the simultaneous study of the NF-κB pathway, by monitoring the activity of SEAP, and the IRF pathway by assessing the activity of a secreted luciferase (Lucia). Both reporter proteins are readily measurable in the cell culture supernatant when using QUANTI-Blue™, a SEAP detection reagent, and QUANTI-Luc™, a luciferase detection reagent.
(§3) THP 1-Dual™ cells induce the activation of NF-κB in response to STING agonists. They also trigger the IRF pathway upon stimulation with STING agonists, such as cGAMP. Here, the THP-1-Dual cells were used to assess STING binders for function on the cellular level.
(§4) Serial dilutions of compounds in DMSO were added to low volume 384 well plates at 100 nl/well using an ECHO acoustic dispenser (Labcyte, model 550) to achieve final starting concentration of 100 μM in cell suspension. THP-1 Dual™ STING reporter cells (Invivogen, Dual cells cat #THPD-nfis) were added to the plates with compounds at 15,000 cells in 10 μL per well in RPMI media (Gibco, cat #11875) containing 10% human plasma in a low volume 384-well black wall clear bottom tissue culture plate (Corning, cat #3542) for SEAP assay and low volume solid white plate (Corning, cat #3826) for luciferase assay. One column of the plate was reserved for treatment with cGAMP at 100 μM for 100% activation calculation and one column for no treatment (DMSO only) for baseline activation. Plates were then incubated in 37° C. incubator at 5% CO2 for 20 hours.
(§5) In the SEAP assay, […] 2× QuantiBlue (Invivogen, cat #Rep-qb2) is added to 384 well black plates seeded with THP1 cells and incubated at 37° C. for 2 hours. Plates were read on the Envision (Perkin Elmer) at 620 nm wavelength (OD620). In the luciferase assay, 5 μl of Quantiluc (Invivogen, Rep-qlc2) is added to white 384 well plates seeded with THP1 cells and read at 5 minutes on the Envision (Perkin Elmer) using a luminescence protocol (RLU). For both cell lines, 100% activation was determined by value (RLU) of THP-1 Dual STING cells stimulated with 100 μM cGAMP (Invivogen, cat #TLRL-NACGA23-5).

The next assay concerns IRF3. Description: STING THP1 Reporter Assay, IRF pathway (secreted Lucia luciferase). The format is cell-based. To be noted: THP1-Dual cells, 10% human plasma, luciferase readout, 100% activation = 100 μM cGAMP, read-out: THP1 Reporter Assays EC50 (μM) IRF3.
Text: as §2, §3, §4, §5

T1 sequence (Q86WV6 with tags, fused parts or gaps H232R): as the sequence (Q86WV6 with tags, fused parts or gaps G230A/H232R/R293Q) above, with A99G, Q162R counted along it

Regarding `Nc1ncnc2c1ncn2[C@@H]1O[C@@H]2COP(=O)(S)O[C@@H]3[C@H](O)[C@@H](COP(=O)(S)O[C@H]2[C@H]1F)O[C@H]3n1cnc2c(=O)[nH]c3nccn3c21` (single isomer, unassigned) [Example 1-1], the EC50 in assay [1] is 0.19 µM; in assay [2], 0.07 µM; in the assay on NFkB (20 hours), above 100 µM; in the assay with IRF3 (20 hours), above 100 µM.

Turning to `Nc1ncnc2c1ncn2[C@@H]1O[C@@H]2COP(=O)(S)O[C@@H]3[C@H](O)[C@@H](COP(=O)(S)O[C@H]2[C@H]1F)O[C@H]3n1cnc2c(=O)[nH]c3nccn3c21` (single isomer, unassigned) [Example 1-2], the EC50 in assay [1] is 0.02 µM; in assay [2], 0.004 µM; in the assay on NFkB (20 hours), 21 µM; with IRF3 (20 hours), 10 µM.

On to `Nc1ncnc2c1ncn2[C@@H]1O[C@@H]2COP(=O)(S)O[C@@H]3[C@H](O)[C@@H](COP(=O)(S)O[C@H]2[C@H]1F)O[C@H]3n1cnc2c(=O)[nH]c3nccn3c21` (single isomer, unassigned) [Example 1-3], for which the 50% effective concentration (EC50) in assay [1] is 0.03 µM; in assay [2] it was 0.006 µM; with NFkB (20 hours), 27 µM; in the assay with IRF3 (20 hours), 12 µM.

For `Nc1ncnc2c1ncn2[C@@H]1O[C@@H]2COP(=O)(S)O[C@@H]3[C@H](O)[C@@H](COP(=O)(S)O[C@H]2[C@H]1F)O[C@H]3n1cnc2c(=O)[nH]c3nccn3c21` (single isomer, unassigned) [Example 1-4], the half-maximal effective concentration (EC50) in assay [1] is 0.003 µM; in assay [2], below 0.001 µM; in the assay with NFkB (20 hours) it was 3 µM; in the assay on IRF3 (20 hours) it was 1 µM.

Take `Nc1ncnc2c1ncn2[C@@H]1O[C@@H]2COP(=O)(O)O[C@@H]3[C@H](O)[C@@H](COP(=O)(O)O[C@H]2[C@H]1F)O[C@H]3n1cnc2c(=O)[nH]c3nccn3c21` [Example 2, (1R,6R,8R,9R,10R,15R,17R,18R)-8-(6-amino-9H-purin-9-yl)-9-fluoro-3,12,18-trihydroxy-17-{4-oxo-1H,4H,5H-imidazo[2,1-b]purin-1-yl}-2,4,7,11,13,16-hexaoxa-3λ^5,12λ^5-diphosphatricyclo[13.2.1.0^6,10]octadecane-3,12-dione]: the 50% effective concentration (EC50) came out at 0.03 µM in assay [1]; 0.002 µM in assay [2]; 59 µM in the assay with NFkB (Homo sapiens, THP-1, 20 h); 23 µM in the assay on IRF3 (Homo sapiens, THP-1, 20 h).

`Nc1ncnc2c1ncn2[C@@H]1O[C@@H]2COP(=O)(O)O[C@@H]3[C@H](O)[C@@H](COP(=O)(O)O[C@H]2[C@H]1N)O[C@H]3n1cnc2c(=O)[nH]c3nccn3c21` [Example 3, (1R,6R,8R,9R,10S,15R,17R,18R)-9-amino-8-(6-amino-9H-purin-9-yl)-3,12,18-trihydroxy-17-{4-oxo-1H,4H,5H-imidazo[2,1-b]purin-1-yl}-2,4,7,11,13,16-hexaoxa-3λ^5,12λ^5-diphosphatricyclo[13.2.1.0^6,10]octadecane-3,12-dione]: the EC50 in assay [1] is 1.6 µM; in assay [2], 0.3 µM; in the assay on NFkB (Homo sapiens, THP-1, 20 h) it was above 100 µM; in the assay on IRF3 (Homo sapiens, THP-1, 20 h) it was above 100 µM.

In general, EC50 refers to the concentration that produces a half-maximal response.

The values are drawn from patent publication US10953032B2, “Cyclic dinucleotides as anticancer agents” (BRISTOL-MYERS SQUIBB COMPANY, priority 2017, dated 2021).
